Patent publication US6750227B2, “Method of treatment of neuropsychiatric symptoms in patients with Alzheimer's Disease” (SmithKline Beecham Corporation, priority 1998, dated 2004)
Like-named read-outs stand apart in the source and are kept apart here.

How the values were obtained:
[1] = tested on: patients with Alzheimer's Disease; conditions: for Agitation score / Anxiety score / Apathy score / Delusions score / Depression score / Disinhibition score / Elation score / Hallucinations score / Irritability score / Wandering score / Total NPI score: All Patients, negative = improvement; for NPI total score, country adjusted difference vs placebo: all patients
Protocol: A retrospective meta-analysis on the combined data was then conducted and effects on individual symptoms assessed.
Country adjusted differences were calculated as the difference between the adjusted least square means; allowing estimates from each country to be combined in a manner whereby the most precise estimate is given more weight.
Following this analysis, a further retrospective analysis was conducted on the subgroup of patients who presented with severe behavioural disturbance at the start of the study (defined as a baseline NPI score>20). Country adjusted differences were calculated as the difference between the adjusted least square means; allowing estimates from each country to be combined in a manner whereby the most precise estimate is given more weight.

Male Sprague Dawley rats [2] = conditions: rat, 30 min pretreatment
Male Sprague Dawley rats [3] = test: Catalepsy in the rat; conditions: 90 min after dosing, doses up to 0.3 mg/kg po
Male Sprague Dawley rats [4] = conditions: rat, in vivo, 2.8 mg/kg, 90 min
[5] = Patients with baseline NPI >20, 25 μg bid
[6] = Patients with baseline NPI >20, 50 μg uid

`CO/N=C(\C#N)[C@H]1CN2CCC1CC2` [Compound (I), [R-(Z)]-α-(methoxyimino)-α-(1-azabicyclo[2.2.2]oct-3-yl)acetonitrile] gave an Agitation score ([1]; 25 μg bid) of −0.5, an Anxiety score ([1]; 25 μg bid) of −0.9 and an Apathy score ([1]; 25 μg bid) of −1.1. For the same compound, the Delusions score ([1]; 25 μg bid) was −0.7, the Depression score ([1]; 25 μg bid) was −0.3 and the Disinhibition score ([1]; 25 μg bid) was −0.7. The Elation score ([1]; 25 μg bid) was −1.1, the Hallucinations score ([1]; 25 μg bid) was −1.5 and the Irritability score ([1]; 25 μg bid) was −0.4. For the same compound, the Wandering score ([1]; 25 μg bid) was −1.2, the “Total NPI score” value ([1]; 25 μg bid, p 0.064 vs placebo) was “+0.7” and the Agitation score ([1]; 50 μg uid) was −0.6. For the same compound, the Anxiety score ([1]; 50 μg uid) was −1.5, the Apathy score ([1]; 50 μg uid) was −1.5 and the Delusions score ([1]; 50 μg uid) was −0.6. The Depression score ([1]; 50 μg uid) was −0.6, the Disinhibition score ([1]; 50 μg uid) was −0.7 and the Elation score ([1]; 50 μg uid) was −1.9. The Hallucinations score ([1]; 50 μg uid) was −0.7, the Irritability score ([1]; 50 μg uid) was −0.9 and the Wandering score ([1]; 50 μg uid) was −1.0. For the same compound, the “Total NPI score” value ([1]; 50 μg uid, p 0.026 vs placebo) was “+0.3”, the “Agitation endpoint score: change from baseline” value [1, 5] was 0 and the “Anxiety endpoint score: change from baseline” value [1, 5] was −1.9. For the same compound, the “Apathy endpoint score: change from baseline” value [1, 5] was −1.4, the “Delusions endpoint score: change from baseline” value [1, 5] was −0.8 and the “Depression endpoint score: change from baseline” value [1, 5] was 0. For the same compound, the “Disinhibition endpoint score: change from baseline” value [1, 5] was −0.8, the “Elation endpoint score: change from baseline” value [1, 5] was −1.7 and the “Hallucinations endpoint score: change from baseline” value [1, 5] was −2.1. The “Irritability endpoint score: change from baseline” value [1, 5] was −0.7, the “Wandering endpoint score: change from baseline” value [1, 5] was −1.7 and the “Total NPI endpoint score: change from baseline” value ([1]; Patients with baseline NPI >20, 25 μg bid, p 0.043 vs placebo) was −4.0. The “Agitation endpoint score: change from baseline” value [1, 6] was −0.6, the “Anxiety endpoint score: change from baseline” value [1, 6] was −1.8 and the “Apathy endpoint score: change from baseline” value [1, 6] was −1.6. For the same compound, the “Delusions endpoint score: change from baseline” value [1, 6] was −1.4, the “Depression endpoint score: change from baseline” value [1, 6] was −1.1 and the “Disinhibition endpoint score: change from baseline” value [1, 6] was −1.1. For the same compound, the “Elation endpoint score: change from baseline” value [1, 6] was −2.5, the “Hallucinations endpoint score: change from baseline” value [1, 6] was −1.4 and the “Irritability endpoint score: change from baseline” value [1, 6] was −1.2. For the same compound, the “Wandering endpoint score: change from baseline” value [1, 6] was −1.3, the “Total NPI endpoint score: change from baseline” value ([1]; Patients with baseline NPI >20, 50 μg uid, p 0.019 vs placebo) was −6.1 and the “NPI total score, country adjusted difference vs placebo” value ([1]; 50 μg uid, p=0.026, 95% CI −4.1, −0.3) was −2.1. The “NPI total score, country adjusted difference vs placebo” value ([1]; 25 kg bid (so in the source), p=0.064, 95% CI −3.8, 0.1) was −1.8, the “total NPI score, country adjusted difference vs placebo” value ([1]; patients with baseline NPI>20, 25 μg bid, p=0.043, 95% CI −14.1, −0.2) was −7.18 and the “total NPI score, country adjusted difference vs placebo” value ([1]; patients with baseline NPI>20, 50 μg uid, p=0.019, 95% CI −14.4, −1.3) was −7.86. The “dose at which reversal of amphetamine-induced hyperactivity reached significance (P<0.01)” value (Male Sprague Dawley rats [2]; 0.01-0.3 mg/kg po) was 0.3 mg/kg, the “ED50 for reversal of amphetamine-induced hyperactivity” value (Male Sprague Dawley rats [2]; po, 95% CI=0.14-0.75) was 0.25 mg/kg and the catalepsy (Male Sprague Dawley rats [3]) was “did not produce catalepsy”.
`O=C(CCCN1CCC(O)(c2ccc(Cl)cc2)CC1)c1ccc(F)cc1` [haloperidol, Haloperidol] was tested, and the “rats in which catalepsy was produced” value (Male Sprague Dawley rats [4]) was 6 of 6.
